In patent US8598183B2, “Solid state forms of a potent HCV inhibitor” (Boehringer Ingelheim International GmbH, priority 2010, dated 2013):
Marks after values point to notes of the source that are not given here.

Tests used:
Type in all cases: physicochemical
[1] = Solubility of Compound (1) in physiological pH range; thermodynamic solubility
Experimental: Doses of Compound (1) up to 400 to 600 mg per dose may be required to be delivered to obtain exposures necessary for sufficient efficacy in vivo. Based on thermodynamic solubility of Compound (1), solubility of 0.005-0.01 mg/ml is estimated for Compound (1) sodium salt.

[2] = Storage stability of concentrated supersaturated aqueous solutions; details: 10 month storage at room temperature
Experimental: This unique behavior of high solubility at high drug concentrations is most likely attributable to tendency of the drug substance to self-micellize. A CMC value of 41.4 mM (corresponding to 28 mg/mL) is estimated.

[3] = Powder dissolution / solubility of Compound (1) sodium salt in water at different concentrations; details: for % dissolved / CMC value: water; for CMC value: estimated
Experimental: Based on thermodynamic solubility of Compound (1), solubility of 0.005-0.01 mg/ml is estimated for Compound (1) sodium salt. […] This unique behavior of high solubility at high drug concentrations is most likely attributable to tendency of the drug substance to self-micellize. A CMC value of 41.4 mM (corresponding to 28 mg/mL) is estimated.

[4] = Water content at variable humidity (adsorption curve of VTI measurement); details: 25° C.
Experimental: Bruker D-8 Advance X-Ray Powder Diffractometer in parallel beam mode with a scintillation detector and using a variable temperature/humidity stage. Humidity adjusted and equilibrated at 25° C., scans from 2-35° 2-theta, 0.05° 2-theta step size, 4 seconds/step At higher humidity (50% RH, and 85% RH) the diffraction lines in the resulting patterns are shifted consistent with lattice expansion to accommodate more water in the lattice. The amount of water at 50% RH based on the adsorption curve of the VTI measurement is 1.7%, and the amount of water at 85% RH is 4.5%. When the sample is exposed to ambient conditions after high humidity the resulting diffraction pattern is again consistent with that of the starting material.

[5] = Powder dissolution testing in pH 6.8 buffer, USP Type II Paddle apparatus; details: 60 minutes, listed as crystalline Compound (1) sodium salt
[6] = Powder dissolution of triturated mixtures in capsules in 500 mL pH 6.8 buffer; details: capsule
From the text: One class of solubilizer excipients, basifiers, act by increasing the microenvironment pH and thereby increasing the local solubility of the drug (for a drug containing an acid moiety). Another class of solubilizer excipients, surfactants, also act by increasing the local solubility of the drug. […] For example, an enhancement in dissolution was obtained when surfactants, for example, sodium lauryl sulfate or Vitamin E TPGS, were used in combination with basifiers, for example, L-arginine, meglumine or L-lysine. […] For example, only 1% drug release was obtained when Compound (1) sodium salt crystalline was present. The % drug release was 54% at 60 minutes in the presence of 100 mg Arginine alone and 59% in the presence of Sodium lauryl sulfate alone (Table 2). However, in presence of 100 mg of Arginine along with 100 mg of Sodium lauryl sulfate, the % drug release increased to 93% at 60 minutes (Table 3) indicating enhancement in dissolution when both surfactant and basifier were used in combination.

Cn1c(C2(NC(=O)c3ccc4c(C5CCCC5)c(-c5ncc(Br)cn5)n(C)c4c3)CCC2)nc2ccc(/C=C/C(=O)[O-])cc21.[Na+] [Compound (1) sodium salt]
solubility estimated based on thermodynamic solubility of Compound (1) [1]: 5 to 10 µg/mL
precipitation of highly concentrated supersaturated solutions [2]: no precipitation observed
dissolution in water ([3]; concentrations exceeding the CMC value): dissolves completely
% dissolved ([3]; conc 0.1 mg/ml): 13.4%
% dissolved ([3]; conc 0.3 mg/ml): 15.0%
% dissolved ([3]; conc 1.0 mg/ml): 15.4%
% dissolved ([3]; conc 3.0 mg/ml): 46.6%
% dissolved ([3]; conc 10.0 mg/ml): 90.0%
% dissolved ([3]; conc 30.0 mg/ml): 100.0%
% dissolved ([3]; conc 100.0 mg/ml): 100.0%
% dissolved ([3]; conc 200.0 mg/ml): 100.0%
% dissolved ([3]; concentrations ≦1 mg/mL): 15%
CMC value [3]: 41.4 mM
CMC value ([3]; corresponding to the mM value): 28 mg/mL
amount of water ([4]; 50% RH): 1.7%
amount of water ([4]; 85% RH): 4.5%
% dissolved (kinetic dissolution) [5]: < 5%
% Release, average (range) ([6]; 200 mg drug + Arginine 100 mg, 90 (infinity), n = 4): 54 (40-58) %
% Release, average (range) ([6]; 200 mg drug + Arginine 100 mg, 15 min, n = 4): 43 (27-53)* %
% Release, average (range) ([6]; 200 mg drug + Arginine 100 mg, 30 min, n = 4): 54 (39-62) %
% Release, average (range) ([6]; 200 mg drug + Arginine 100 mg, 60 min, n = 4, listed as Compound (1) Na Salt): 54 (38-60) %
% Release, average (range) ([6]; 200 mg drug + Arginine 100 mg, 60 min, n = 4, listed as Compound (1) sodium salt crystalline): 54%
% Release, Average of n = 2 (range) ([6]; 200 mg drug + Arginine + SDS (40 mg + 20 mg), 15 min): 74 (70-78) %
% Release, Average of n = 2 (range) ([6]; 200 mg drug + Arginine + SDS (40 mg + 20 mg), 30 min): 77 (74-80) %
% Release, Average of n = 2 (range) ([6]; 200 mg drug + Arginine + SDS (40 mg + 20 mg), 60 min): 76 (74-78) %
% Release, Average of n = 2 (range) ([6]; 200 mg drug + Arginine + SDS (40 mg + 20 mg), 90 min): 72 (70-74) %
% Release, Average of n = 2 (range) ([6]; 200 mg drug + Arginine + SDS (100 mg + 100 mg), 15 min): 92 (91-93) %
% Release, Average of n = 2 (range) ([6]; 200 mg drug + Arginine + SDS (100 mg + 100 mg), 30 min): 93 (93-94) %
% Release, Average of n = 2 (range) ([6]; 200 mg drug + Arginine + SDS (100 mg + 100 mg), 60 min, listed as Compound (1) Na Salt): 93 (93-93) %
% Release, Average of n = 2 (range) ([6]; 200 mg drug + Arginine + SDS (100 mg + 100 mg), 60 min, listed as Compound (1) sodium salt crystalline): 93%
% Release, Average of n = 2 (range) ([6]; 200 mg drug + Arginine + SDS (100 mg + 100 mg), 90 min): 91 (89-92) %
% Release, Average of n = 2 (range) ([6]; 200 mg drug + Arginine + VitE TPGS (40 mg + 20 mg), 15 min): 62 (61-63) %
% Release, Average of n = 2 (range) ([6]; 200 mg drug + Arginine + VitE TPGS (40 mg + 20 mg), 30 min): 64 (62-67) %
% Release, Average of n = 2 (range) ([6]; 200 mg drug + Arginine + VitE TPGS (40 mg + 20 mg), 60 min): 65 (63-68) %
% Release, Average of n = 2 (range) ([6]; 200 mg drug + Arginine + VitE TPGS (40 mg + 20 mg), 90 min): 63 (60-66) %
% Release, Average of n = 2 (range) ([6]; 200 mg drug + Arginine + VitE TPGS (100 mg + 100 mg), 15 min): 76 (74-78) %
% Release, Average of n = 2 (range) ([6]; 200 mg drug + Arginine + VitE TPGS (100 mg + 100 mg), 30 min): 77 (76-78) %
% Release, Average of n = 2 (range) ([6]; 200 mg drug + Arginine + VitE TPGS (100 mg + 100 mg), 60 min): 78 (78-78) %
% Release, Average of n = 2 (range) ([6]; 200 mg drug + Arginine + VitE TPGS (100 mg + 100 mg), 90 min): 76 (75-76) %
% Release, average (range) ([6]; 200 mg drug + Lysine 100 mg, 90 (infinity), n = 4): 44 (33-46) %
% Release, average (range) ([6]; 200 mg drug + Lysine 100 mg, 15 min, n = 4): 18 (9-27) %
% Release, average (range) ([6]; 200 mg drug + Lysine 100 mg, 60 min, n = 4): 47 (33-54) %
% Release, Average of n = 2 (range) ([6]; 200 mg drug + Lysine + SDS (40 mg + 20 mg), 15 min): 75 (74-77) %
% Release, Average of n = 2 (range) ([6]; 200 mg drug + Lysine + SDS (40 mg + 20 mg), 30 min): 77 (76-78) %
% Release, Average of n = 2 (range) ([6]; 200 mg drug + Lysine + SDS (40 mg + 20 mg), 60 min): 75 (74-75) %
% Release, Average of n = 2 (range) ([6]; 200 mg drug + Lysine + SDS (40 mg + 20 mg), 90 min): 72 (70-74) %
% Release, Average of n = 2 (range) ([6]; 200 mg drug + Lysine + SDS (100 mg + 100 mg), 15 min): 40 (37-42) %
% Release, Average of n = 2 (range) ([6]; 200 mg drug + Lysine + SDS (100 mg + 100 mg), 30 min): 74 (67-82) %
% Release, Average of n = 2 (range) ([6]; 200 mg drug + Lysine + SDS (100 mg + 100 mg), 60 min): 85 (85-86) %
